# Experimental data: patent publication US6828111B2, “Three-dimensional in vitro model of human preneoplastic breast disease” (Wayne State University, priority 2000, dated 2004)
# “Also recorded” adds a separate entry of the source.
# Columns and labels:
# Assay type in all cases: cell-based, human
# EIII8 cells = assay: Homotypic EIII8 3D Matrigel culture, phase contrast morphology
# EIII8-HUVEC co-cultures [1] = assay: Heterotypic EIII8-HUVEC 3D Matrigel co-culture, morphology; details: for inhibition of endothelial sprouting and associated ductal-alveolar morphogenesis: 1 nM E2 plus 100-fold molar excess of antiestrogen, day 5
# Excerpt: For heterotypic 3D co-cultures, 5×10^4 MCF10A, MCF10AT1, or EIII8 cells were mixed with an equal number of HUVECs, human breast fibroblasts (reduction mammoplasty, benign or tumor-derived), IMR-90, HT1080 or NIH 3T3 cells. For heterotypic tricultures, MCF10A or EIII8 cells were mixed with equivalent numbers of human breast fibroblasts (reduction mammoplasty, benign or tumor-derived) and HUVECs and seeded onto chamber slides coated with Matrigel as described for homotypic cultures. Typically, heterotypic co-cultures were performed in SFM supplemented with EGF and bFGF since this medium results in optimal viability, growth and 3D organization of both HUVEC and MCF10A cells. Typically, heterotypic cultures were performed in SFM supplemented with EGF and bFGF because it allows optimal viability, growth and 3D organization of HUVEC, fibroblasts and MCF10A cells. Heterotypic co-cultures were routinely maintained up to 3 weeks, and morphological development was analyzed by phase contrast microscopy. F To assess growth effects of E2 on homotypic (EIII8) or heterotypic (EIII8-HUVEC) 3D cultures, 5×10^4 EIII8 cells were seeded alone or mixed with an equivalent number of HUVEC in the appropriate medium in 8-well chamber slides coated with Matrigel as described above. Slides were incubated overnight to allow attachment of the cells, and treated with vehicle (0.01% ethanol, v/v), pure antiestrogen ICI 182,780 alone (100 or 1000 nM (Zeneca Pharmaceuticals, […]2 (0.1, 1 or 10 nM; Sigma Chemical Co., St. Louis, Mo.), or a combination of 1 nM E2 and 100- or 1000-fold molar excess of ICI 182,780. Cultures were incubated at 37° C. for 5 days, after which cell viability was measured with the MTS (3-(4,5-dimethylthiazol-2-yl)-5-(3-carboxymethoxyphenyl)-2-(4-sulfophenyl)-2H-tetrazolium) kit according to the manufacturer's directions (Promega Corp, Madison, Wis.).
# MCF10A-HUVEC co-cultures = assay: Heterotypic MCF10A-HUVEC 3D Matrigel co-culture, morphology
# Excerpt: For heterotypic 3D co-cultures, 5×10^4 MCF10A, MCF10AT1, or EIII8 cells were mixed with an equal number of HUVECs, human breast fibroblasts (reduction mammoplasty, benign or tumor-derived), IMR-90, HT1080 or NIH 3T3 cells. For heterotypic tricultures, MCF10A or EIII8 cells were mixed with equivalent numbers of human breast fibroblasts (reduction mammoplasty, benign or tumor-derived) and HUVECs and seeded onto chamber slides coated with Matrigel as described for homotypic cultures. Typically, heterotypic co-cultures were performed in SFM supplemented with EGF and bFGF since this medium results in optimal viability, growth and 3D organization of both HUVEC and MCF10A cells. Typically, heterotypic cultures were performed in SFM supplemented with EGF and bFGF because it allows optimal viability, growth and 3D organization of HUVEC, fibroblasts and MCF10A cells. Heterotypic co-cultures were routinely maintained up to 3 weeks, and morphological development was analyzed by phase contrast microscopy. F
# EIII8-HUVEC co-cultures [2] = assay: 3D growth of EIII8-HUVEC cultures by MTS assay and trypan blue counts
# Procedure: To assess growth effects of E2 on homotypic (EIII8) or heterotypic (EIII8-HUVEC) 3D cultures, 5×10^4 EIII8 cells were seeded alone or mixed with an equivalent number of HUVEC in the appropriate medium in 8-well chamber slides coated with Matrigel as described above. Slides were incubated overnight to allow attachment of the cells, and treated with vehicle (0.01% ethanol, v/v), pure antiestrogen ICI 182,780 alone (100 or 1000 nM (Zeneca Pharmaceuticals, […]2 (0.1, 1 or 10 nM; Sigma Chemical Co., St. Louis, Mo.), or a combination of 1 nM E2 and 100- or 1000-fold molar excess of ICI 182,780. Cultures were incubated at 37° C. for 5 days, after which cell viability was measured with the MTS (3-(4,5-dimethylthiazol-2-yl)-5-(3-carboxymethoxyphenyl)-2-(4-sulfophenyl)-2H-tetrazolium) kit according to the manufacturer's directions (Promega Corp, Madison, Wis.). Measurements were made from triplicate sets of wells for each treatment. Background absorbance was corrected by preparing triplicate sets of wells containing only Matrigel (“no cell”) and the same volume of medium and MTS reagent as in experimental wells. Average absorbances from “no cell” wells were subtracted from sample absorbance values containing cells to yield corrected absorbance, and the results represent the average±S.E. of triplicate samples. Each experiment was repeated at least three times. Since the MTS assays performed here differs from routine MTS assays in that they are done on 3D cultures growing in Matrigel rather than monolayers, results of MTS assays were validated by performing direct cell counts of viable cells in the 3D cultures. For this, the medium was removed, wells rinsed with PBS, and Matrigel was digested with dispase for 2 h at 37° C. The digested material was centrifuged at 4000×g for 10 min, and the pellet treated with trypsin to recover single cells from the 3D tubular structures. The number of viable cells was determined by trypan blue exclusion in a hemocytometer. Results were expressed as mean±S.E. from three independent experiments.
# VEGF165 = assay: Western blot of VEGF165 in culture media of EIII8-HUVEC 3D cultures
# Procedure: (§1) 5×10^4 EIII8 or MCF10A cells were seeded alone or mixed with an equivalent number of HUVEC on Matrigel in SFM media as described above. Cells were incubated for 6 h to attach and the medium was replaced with fresh SFM. After appropriate incubation, the culture media from homotypic and heterotypic co-cultures were collected, centrifuged to remove debris and stored at −20° C. Following removal of culture medium, matrix containing the 3D structures was either solubilized for SDS-PAGE and Western blot analysis or fixed in buffered formalin for evaluation of morphology and distribution of functional markers. Analysis of expression of VEGF, IL-8, Estrogen receptor (ER) and Flk-1/KDR proteins was carried out by Western analysis with specific antibodies. […] The following antibodies to human proteins were used: (1) rabbit polyclonal anti-VEGF antisera (recognizes C-terminal epitope of VEGF165, VEGF189 and VEGF206; Oncogene Science), mouse anti-ER mAb (Clone 1D5; reacts with the N-terminal domain or A/B region of the ER; Dako Corp., Carpenteria, Calif.), mouse anti-Flk-1/KDR mAb (Chemicon International, Inc.) and goat polyclonal anti-IL-8 antibody (R&D Systems). Immunoreactive bands were visualized by chemiluminescence, and band intensities were quantitated with a Model 300A densitometer (Molecular Dynamics, Sunnyvale, Calif.).
# IL-8 = assay: Western blot of IL-8 in culture media of EIII8-HUVEC 3D cultures
# Procedure: as §1
# Flk-1/KDR = assay: Western blot of Flk-1/KDR in matrix fractions of EIII8-HUVEC 3D cultures; details: for regulation of Flk-1/KDR protein levels: 10-day old co-cultures
# Procedure: (§2) 5×10^4 EIII8 or MCF10A cells were seeded alone or mixed with an equivalent number of HUVEC on Matrigel in SFM media as described above. Cells were incubated for 6 h to attach and the medium was replaced with fresh SFM. After appropriate incubation, the culture media from homotypic and heterotypic co-cultures were collected, centrifuged to remove debris and stored at −20° C. Following removal of culture medium, matrix containing the 3D structures was either solubilized for SDS-PAGE and Western blot analysis or fixed in buffered formalin for evaluation of morphology and distribution of functional markers.
# Analysis of expression of VEGF, IL-8, Estrogen receptor (ER) and Flk-1/KDR proteins was carried out by Western analysis with specific antibodies. Aliquots of unconcentrated conditioned media or lysates of 3D cultures containing 20 or 40 μg total protein, respectively, were collected after indicated culture intervals, separated by SDS-PAGE on 12.5% (VEGF), 17% (IL-8) or 7% (ER and Flk-1/KDR) polyacrylamide gels (Laemmli, UK, Nature 227:680-685, 1970), and subjected to Western blot analysis. The following antibodies to human proteins were used: (1) rabbit polyclonal anti-VEGF antisera (recognizes C-terminal epitope of VEGF165, VEGF189 and VEGF206; Oncogene Science), mouse anti-ER mAb (Clone 1D5; reacts with the N-terminal domain or A/B region of the ER; Dako Corp., Carpenteria, Calif.), mouse anti-Flk-1/KDR mAb (Chemicon International, Inc.) and goat polyclonal anti-IL-8 antibody (R&D Systems). Immunoreactive bands were visualized by chemiluminescence, and band intensities were quantitated with a Model 300A densitometer (Molecular Dynamics, Sunnyvale, Calif.).
# [3] = system: EIII8+31R+HUVEC tricultures; assay: 3D growth of EIII8+31R+HUVEC tricultures, viable cell count; details: 1 or 10 nM E2, 6 days, reduction mammoplasty fibroblasts
# Procedure: (§3) 3-D cultures were set up by seeding 5×10^4 EIII8, HUVEC, […] or […] (reduction mammoplasty fibroblasts), […] or […] (tumor-derived breast fibroblasts) alone or mixing 5×10^4 EIII8 cells with an equivalent number of […] (or […]) or […] (or […]) in the absence or presence of an equivalent number of HUVEC cells onto chamber slides coated with Matrigel as described above. Cultures were incubated at 37° C. for 6 days, after which the cell viability was measured in the 3-D cultures. The medium was removed, wells were rinsed with phosphate buffered saline, and the Matrigel was digested with dispase for 2 h at 37° C. The digested material was centrifuged at 4000×g for 10 min, and the pellet was treated with trypsin to recover single cells from the 3-D structures. The number of viable cells was determined by trypan blue exclusion in a hemocytometer and results expressed as average±SE from three independent experiments. […]
# [4] = system: EIII8+38T+HUVEC tricultures; assay: 3D growth of EIII8+38T+HUVEC tricultures, viable cell count
# Procedure: as §3
# [5] = system: wild type ER protein (67 kDa); assay: Western blot of ER in matrix fractions of EIII8-HUVEC 3D cultures; details: 100-fold molar excess over E2, day 5; 42 kDa ER-reactive protein appears
# Procedure: as §2
# Analysis of expression of VEGF, IL-8, Estrogen receptor (ER) and Flk-1/KDR proteins was carried out by Western analysis with specific antibodies. Aliquots of unconcentrated conditioned media or lysates of 3D cultures containing 20 or 40 μg total protein, respectively, were collected after indicated culture intervals, separated by SDS-PAGE on 12.5% (VEGF), 17% (IL-8) or 7% (ER and Flk-1/KDR) polyacrylamide gels (Laemmli, UK, Nature 227:680-685, 1970), and subjected to Western blot analysis. […] Immunoreactive bands were visualized by chemiluminescence, and band intensities were quantitated with a Model 300A densitometer (Molecular Dynamics, Sunnyvale, Calif.).
structure (smiles),measurement,setting,value
"C[C@]12CC[C@@H]3c4ccc(O)cc4CC[C@H]3[C@@H]1CC[C@@H]2O [E2, 17 β-estradiol]","effect on EIII8 3D tubular structures (tube thickening, central spaces, connecting bridges)","EIII8 cells; 1 or 10 nM E2, 5 days, vs control cultures",marked thickening of tubes; also recorded: induce formation of several new central spaces and connecting bridges
same,growth of endothelial cell-enriched spots and ductal-alveolar outgrowths,"EIII8-HUVEC co-cultures [1]; 1 nM E2, 5-day co-cultures, vs control",enhanced
same,influence on growth and proliferation of endothelial or epithelial cells,"MCF10A-HUVEC co-cultures; addition of E2 (1 nM), day 5",no significant influence
same,increase in growth over control cultures,"EIII8-HUVEC co-cultures [2]; 10 nM E2, day 5, p<0.01",2 fold
same,concentrations giving dose dependent induction of growth,"EIII8-HUVEC co-cultures [2]; day 5, MTS and trypan blue assays",> 1 nM
same,increase in VEGF165 levels over control cultures,"VEGF165; 1 nM E2, day 5, densitometry",4 fold
same,increase in VEGF165 levels over control cultures,"VEGF165; 1 nM E2, day 10, densitometry",8 fold
same,regulation of IL-8 expression,"IL-8; 1 nM E2, days 5 and 10",did not appear to regulate IL-8 expression
same,"levels of Flk-1/KDR protein, E2-treated vs control","Flk-1/KDR; 1 nM E2, 5 day-old cultures",equally up-regulated
same,regulation of Flk-1/KDR protein levels,Flk-1/KDR,no longer regulated
same,stimulation of triculture growth,[3],failed to stimulate growth
same,increase in triculture growth,"[4]; apparent only with 10 nM E2, 6 days, p<0.03",marginal increase
CC/C(=C(\c1ccc(O)cc1)c1ccc(OCCN(C)C)cc1)c1ccccc1 [4(OH) tamoxifen],inhibition of endothelial sprouting and associated ductal-alveolar morphogenesis,EIII8-HUVEC co-cultures [1],dramatic inhibition
"C[C@]12CC[C@@H]3c4ccc(O)cc4C[C@@H](CCCCCCCCC[S+]([O-])CCCC(F)(F)C(F)(F)F)[C@H]3[C@@H]1CC[C@@H]2O (some centres unmarked) [ICI 182,780]",blocking of E2-induced effects on EIII8 3D structures (epithelial multilayering),"EIII8 cells; 1 nM E2 plus 100-fold molar excess of antiestrogen, 5 days",blocked; also recorded: significantly inhibits
same,inhibition of endothelial sprouting and associated ductal-alveolar morphogenesis,EIII8-HUVEC co-cultures [1],dramatic inhibition; also recorded: specific inhibition
same,formation of endothelial cell-enriched spots / endothelial cell growth,"MCF10A-HUVEC co-cultures; 1 nM E2 plus 100-fold molar excess ICI 182,780, day 5, MCF10A epithelium maintained",abolished; also recorded: specific inhibition
same,effect on growth promoting effects of E2,"EIII8-HUVEC co-cultures [2]; 100-fold molar excess over 1 nM E2, day 5, p<0.001",abolished
same,E2-stimulated VEGF165 levels,"VEGF165; ICI 182,780 at 100-fold molar excess over 1 nM E2",returned to control levels
same,effect on IL-8 levels,"IL-8; 100-fold molar excess over 1 nM E2, days 5 and 10",no effect
same,regulation of Flk-1/KDR protein levels,Flk-1/KDR,no longer regulated
same,reduction in Flk-1/KDR protein levels,"Flk-1/KDR; 100-fold molar excess, 5-day old cultures",about 80%
same,amount of wild type ER,[5],significantly reduced
same,inhibition of growth in vehicle- and E2-treated cultures,"[4]; 100 nM ICI 182,780 alone or with 1 nM E2, 6 days, p<0.001",significantly inhibited; also recorded: significantly decreased
